Reference: ChEMBL document CHEMBL5550087, “Development of tenofovir monobenzyl ester phosphonoamidate prodrugs with improved anti-hepatitis B virus activity and intrahepatic tenofovir enrichment” (Bioorg Med Chem, 2024)

Legend:
[1] = Drug uptake in ICR mouse liver at 50 mg/kg, ig measured after 3 hrs by LC-MS/MS analysis; format: ADME, organism-based; settings: po, read-out: Drug uptake
[2] = Drug metabolism in ICR mouse plasma assessed as tenofovir metabolite level at 50 mg/kg, ig measured after 3 hrs by LC-MS/MS analysis; format: ADME, organism-based; settings: in vivo, po
[3] = Drug metabolism in ICR mouse liver assessed as ratio of tenofovir level to parent compound level at 50 mg/kg, ig measured after 3 hrs by LC-MS/MS analysis; format: ADME, organism-based; settings: in vivo, po
[4] = Plasma concentration in ICR mouse at 50 mg/kg, ig measured after 3 hrs by LC-MS/MS analysis; format: ADME, organism-based; settings: po
[5] = Drug metabolism in ICR mouse liver assessed as tenofovir metabolite level at 50 mg/kg, ig measured after 3 hrs by LC-MS/MS analysis; format: ADME, organism-based; settings: in vivo, po
[6] = Ratio of drug level in ICR mouse liver to plasma at 50 mg/kg, ig measured after 3 hrs by LC-MS/MS analysis; format: ADME, organism-based; settings: liver and plasma, po
[7] = Drug metabolism in ICR mouse plasma assessed as ratio of tenofovir level to parent compound level at 50 mg/kg, ig measured after 3 hrs by LC-MS/MS analysis; format: ADME, organism-based; settings: in vivo, po
[8] = Drug metabolism in ICR mouse assessed as ratio of tenofovir metabolite level in liver to plasma at 50 mg/kg, ig measured after 3 hrs by LC-MS/MS analysis; format: ADME, organism-based; settings: other tissue, po
[9] = Cytotoxicity against human HepG2.2.15 cells assessed as reduction in cell viability treated from day 2 to day 8 by CellTiter-Blue reagent based fluorescence analysis; format: toxicity, HepG2 2.2.15; settings: time 6 day
[10] = test system: Hepatitis B virus; assay: Antiviral activity against Hepatitis B virus infected in human HepG2.2.15 cells assessed as inhibition of viral DNA replication treated from day 2 to day 8 by real time fluorescence qPCR analysis; format: functional, organism-based
[11] = Drug metabolism in Sprague-Dawley rat kidney assessed as Tmax of tenofovir metabolite at 25 mg/kg, ig measured for 12 hrs by LC-MS/MS analysis; format: ADME, organism-based; settings: in vivo, po
[12] = Drug metabolism in Sprague-Dawley rat assessed as terminal elimination half life of tenofovir metabolite at 5 mg/kg, iv measured for 24 hrs by LC-MS/MS analysis; format: ADME, organism-based; settings: in vivo
[13] = Mutagenicity in Salmonella typhimurium TA98 assessed as revertant colonies at 1.5 to 1000 ug/well incubated for 66.5 hrs in the dark in presence of S9 fraction by mini-Ames test; format: toxicity, subcellular; settings: salmonella enterica subsp. enterica serovar typhimurium, s9, 66.5 h, dose 1.5-1000 µg
[14] = Drug metabolism in human liver S9 fraction assessed as tenofovir metabolite formation at 1 uM incubated for upto 60 mins by LC-MS/MS analysis; format: ADME, subcellular; settings: s9, 1 h
[15] = Stability of the compound in simulated gastric fluid at 10 uM incubated at 37 degC for upto 1440 mins by LC-MS/MS analysis; format: ADME; settings: simulated gi fluid, 24 h
[16] = Drug metabolism in Sprague-Dawley rat assessed as volume of distribution of tenofovir metabolite at 5 mg/kg, iv measured for 24 hrs by LC-MS/MS analysis; format: ADME, organism-based; settings: in vivo
[17] = Drug metabolism in Sprague-Dawley rat liver assessed as Tmax of tenofovir metabolite at 25 mg/kg, ig measured for 12 hrs by LC-MS/MS analysis; format: ADME, organism-based; settings: in vivo, po
[18] = Drug metabolism in Sprague-Dawley rat liver assessed as terminal elimination half life of tenofovir metabolite at 25 mg/kg, ig measured for 12 hrs by LC-MS/MS analysis; format: ADME, organism-based; settings: in vivo, po
[19] = Drug metabolism in Sprague-Dawley rat assessed as bioavailability of tenofovir metabolite at 25 mg/kg, ig measured for 24 hrs by LCMS/MS analysis; format: ADME, organism-based; settings: in vivo, po
[20] = Drug metabolism in Sprague-Dawley rat plasma assessed as Tmax of tenofovir metabolite at 25 mg/kg, ig measured for 12 hrs by LC-MS/MS analysis; format: ADME, organism-based; settings: in vivo, po
[21] = Drug metabolism in Sprague-Dawley rat assessed as terminal elimination half life of tenofovir metabolite at 25 mg/kg, ig measured for 24 hrs by LC-MS/MS analysis; format: ADME, organism-based; settings: in vivo, po
[22] = Drug metabolism in Sprague-Dawley rat assessed as Tmax of tenofovir metabolite at 25 mg/kg, ig measured for 24 hrs by LC-MS/MS analysis; format: ADME, organism-based; settings: in vivo, po
[23] = Drug metabolism in Sprague-Dawley rat plasma assessed as terminal elimination half life of tenofovir metabolite at 25 mg/kg, ig measured for 12 hrs by LC-MS/MS analysis; format: ADME, organism-based; settings: in vivo, po
[24] = Drug metabolism in Sprague-Dawley rat assessed as Cmax of tenofovir metabolite at 25 mg/kg, ig measured for 24 hrs by LC-MS/MS analysis; format: ADME, organism-based; settings: in vivo, po
[25] = Drug metabolism in Sprague-Dawley rat kidney assessed as Cmax of tenofovir metabolite at 25 mg/kg, ig measured for 12 hrs by LC-MS/MS analysis; format: ADME, organism-based; settings: in vivo, po
[26] = Mutagenicity in Salmonella typhimurium TA100 assessed as revertant colonies at 1.5 to 1000 ug/well incubated for 66.5 hrs in the dark by mini-Ames test; format: toxicity; settings: salmonella enterica subsp. enterica serovar typhimurium, dose 1.5-1000 µg
[27] = Drug metabolism in Sprague-Dawley rat assessed as MRT(0 to t) of tenofovir metabolite at 5 mg/kg, iv measured for 24 hrs by LC-MS/MS analysis; format: ADME, organism-based; settings: in vivo
[28] = Drug metabolism in Sprague-Dawley rat plasma assessed as Cmax of tenofovir metabolite at 25 mg/kg, ig measured for 12 hrs by LC-MS/MS analysis; format: ADME, organism-based; settings: in vivo, po
[29] = Mutagenicity in Salmonella typhimurium TA98 assessed as revertant colonies at 1.5 to 1000 ug/well incubated for 66.5 hrs in the dark by mini-Ames test; format: toxicity; settings: salmonella enterica subsp. enterica serovar typhimurium, dose 1.5-1000 µg
[30] = Drug metabolism in Sprague-Dawley rat assessed as clearance of tenofovir metabolite at 5 mg/kg, iv measured for 24 hrs by LC-MS/MS analysis; format: ADME, organism-based; settings: in vivo
[31] = Drug metabolism in Sprague-Dawley rat kidney assessed as terminal elimination half life of tenofovir metabolite at 25 mg/kg, ig measured for 12 hrs by LC-MS/MS analysis; format: ADME, organism-based; settings: in vivo, po
[32] = target: Voltage-gated inwardly rectifying potassium channel KCNH2 (Homo sapiens, UniProt Q12809); assay: Inhibition of hERG expressed in CHO cells assessed as inhibition of channel current measured at holding potential of -80 mV by whole cell patch clamp analysis; format: toxicity, cell-based
[33] = Stability of the compound in simulated intestinal fluid at 10 uM incubated at 37 degC for upto 1440 mins by LC-MS/MS analysis; format: ADME; settings: simulated gi fluid, 24 h
[34] = Mutagenicity in Salmonella typhimurium TA100 assessed as revertant colonies at 1.5 to 1000 ug/well incubated for 66.5 hrs in the dark in presence of S9 fraction by mini-Ames test; format: toxicity, subcellular; settings: salmonella enterica subsp. enterica serovar typhimurium, s9, 66.5 h, dose 1.5-1000 µg
[35] = Stability of the compound in human plasma at 2 uM incubated for upto 120 mins by LC-MS/MS analysis; format: ADME, cell-free; settings: 2 h
[36] = Drug metabolism in Sprague-Dawley rat liver assessed as Cmax of tenofovir metabolite at 25 mg/kg, ig measured for 12 hrs by LC-MS/MS analysis; format: ADME, organism-based; settings: in vivo, po

Chain of Voltage-gated inwardly rectifying potassium channel KCNH2 (Q12809 whole entry): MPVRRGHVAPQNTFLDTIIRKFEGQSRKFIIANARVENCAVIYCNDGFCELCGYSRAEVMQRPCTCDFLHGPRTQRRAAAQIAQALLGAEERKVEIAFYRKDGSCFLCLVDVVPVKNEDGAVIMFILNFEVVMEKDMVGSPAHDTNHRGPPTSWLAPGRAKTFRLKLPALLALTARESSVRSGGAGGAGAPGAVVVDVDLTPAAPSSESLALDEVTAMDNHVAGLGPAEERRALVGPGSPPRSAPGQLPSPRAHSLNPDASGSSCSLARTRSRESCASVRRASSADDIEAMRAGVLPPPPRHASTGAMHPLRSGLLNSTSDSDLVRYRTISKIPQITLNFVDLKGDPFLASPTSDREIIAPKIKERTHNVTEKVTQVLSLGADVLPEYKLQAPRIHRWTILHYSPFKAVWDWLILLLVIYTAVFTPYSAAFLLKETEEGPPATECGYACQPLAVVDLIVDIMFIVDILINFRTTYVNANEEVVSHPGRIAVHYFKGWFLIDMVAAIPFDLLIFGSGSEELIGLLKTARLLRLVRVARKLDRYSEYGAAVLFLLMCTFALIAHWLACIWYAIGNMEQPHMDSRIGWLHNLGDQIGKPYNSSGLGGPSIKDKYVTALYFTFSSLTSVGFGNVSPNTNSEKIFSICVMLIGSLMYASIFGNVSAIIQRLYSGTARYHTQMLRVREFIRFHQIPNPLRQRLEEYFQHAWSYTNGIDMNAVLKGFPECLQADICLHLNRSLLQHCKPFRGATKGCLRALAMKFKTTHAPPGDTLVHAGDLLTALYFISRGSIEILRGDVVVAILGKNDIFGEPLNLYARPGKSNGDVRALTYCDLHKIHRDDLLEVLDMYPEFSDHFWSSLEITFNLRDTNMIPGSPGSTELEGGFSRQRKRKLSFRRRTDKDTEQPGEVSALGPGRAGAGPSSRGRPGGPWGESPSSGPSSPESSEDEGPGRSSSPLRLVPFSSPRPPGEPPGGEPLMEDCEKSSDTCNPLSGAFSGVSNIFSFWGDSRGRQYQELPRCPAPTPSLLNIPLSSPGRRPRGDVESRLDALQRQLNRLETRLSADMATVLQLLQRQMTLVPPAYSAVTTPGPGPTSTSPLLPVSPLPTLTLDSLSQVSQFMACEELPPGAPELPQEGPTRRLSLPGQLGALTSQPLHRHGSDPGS

CC(C)OC(=O)[C@H](C)NP(=O)(CO[C@H](C)Cn1cnc2c(N)ncnc21)OCc1ccccc1 (some centres not stated)
concentration at 3 h [1]: 375 nM
Drug metabolism [2]: 0.075 nmol/mL
Ratio [3]: 166
concentration at 3 h [4]: 104 nM
Drug metabolism [5]: 67.251 nmol/mL
Kp at 3 h [6]: 3.61
Ratio [7]: 0.72
Ratio [8]: 896

CC(C)OC(=O)CNP(=O)(CO[C@H](C)Cn1cnc2c(N)ncnc21)OCc1ccccc1 (single isomer, unassigned; 1a)
CC50 at 144 h [9]: > 100000 nM
EC50 [10]: > 1000 nM

CC(C)OC(=O)CNP(=O)(CO[C@H](C)Cn1cnc2c(N)ncnc21)OCc1ccccc1 (single isomer, unassigned; 1b)
CC50 at 144 h [9]: > 100000 nM
EC50 [10]: 290 nM

COC(=O)CNP(=O)(CO[C@H](C)Cn1cnc2c(N)ncnc21)OCc1ccccc1 (single isomer, unassigned; 2a)
CC50 at 144 h [9]: > 100000 nM
EC50 [10]: 418 nM

COC(=O)CNP(=O)(CO[C@H](C)Cn1cnc2c(N)ncnc21)OCc1ccccc1 (single isomer, unassigned; 2b)
CC50 at 144 h [9]: > 100000 nM
EC50 [10]: > 1000 nM

CC(C)OC(=O)[C@H](C)NP(=O)(CO[C@H](C)Cn1cnc2c(N)ncnc21)OCc1ccccc1 (single isomer, unassigned; 3a)
CC50 at 144 h [9]: > 100000 nM
Tmax [11]: 0.25 h
t1/2 [12]: 2.89 h
Activity [13]: Non-Toxic
Drug metabolism [14]: Metabolite_Detected
Stability [15]: Stable
Vd [16]: 86.6 L/kg
Tmax [17]: 0.25 h
t1/2 [18]: 6.77 h
F [19]: 32.7%
Tmax [20]: 0.25 h
t1/2 [21]: 10.7 h
Tmax [22]: 0.147 h
t1/2 [23]: 6.58 h
Cmax [24]: 98.35 ng/mL
Cmax [25]: 3234 ng/mL
EC50 [10]: 3.39 nM
Activity [26]: Non-Toxic
MRT(t) [27]: 0.921 h
Cmax [28]: 279 ng/mL
Activity [29]: Non-Toxic
CL [30]: 348 mL/min/kg
t1/2 [31]: 322 h
IC50 [32]: > 10000 nM
Stability [33]: Stable
Activity [34]: Non-Toxic
Stability [35]: Stable
Cmax [36]: 10589 ng/mL

CC(C)OC(=O)[C@H](C)NP(=O)(CO[C@H](C)Cn1cnc2c(N)ncnc21)OCc1ccccc1 (single isomer, unassigned; 3b)
CC50 at 144 h [9]: > 100000 nM
Tmax [11]: 0.25 h
t1/2 [12]: 2 h
Activity [13]: Non-Toxic
Drug metabolism [14]: Metabolite_Detected
Stability [15]: Stable
Vd [16]: 67.4 L/kg
Tmax [17]: 0.25 h
t1/2 [18]: 10.7 h
F [19]: 31.5%
Tmax [20]: 0.25 h
t1/2 [21]: 2.84 h
Tmax [22]: 0.375 h
t1/2 [23]: 6.56 h
Cmax [24]: 143 ng/mL
Cmax [25]: 4663 ng/mL
EC50 [10]: 6 nM
Activity [26]: Non-Toxic
MRT(t) [27]: 0.489 h
Cmax [28]: 216 ng/mL
Activity [29]: Non-Toxic
CL [30]: 435 mL/min/kg
t1/2 [31]: 26.2 h
IC50 [32]: > 30000 nM
Stability [33]: Stable
Activity [34]: Non-Toxic
Stability [35]: Stable
Cmax [36]: 10557 ng/mL

C[C@H](Cn1cnc2c(N)ncnc21)OCP(=O)(NCC(=O)Oc1ccccc1)OCc1ccccc1 (single isomer, unassigned; 4a)
CC50 at 144 h [9]: > 100000 nM
EC50 [10]: 214 nM

C[C@H](Cn1cnc2c(N)ncnc21)OCP(=O)(NCC(=O)Oc1ccccc1)OCc1ccccc1 (single isomer, unassigned; 4b)
CC50 at 144 h [9]: > 100000 nM
EC50 [10]: 848 nM

Cc1ccccc1COP(=O)(CO[C@H](C)Cn1cnc2c(N)ncnc21)N[C@@H](C)C(=O)OC(C)C (single isomer, unassigned; 5a)
CC50 at 144 h [9]: > 100000 nM
EC50 [10]: > 1000 nM

Cc1ccccc1COP(=O)(CO[C@H](C)Cn1cnc2c(N)ncnc21)N[C@@H](C)C(=O)OC(C)C (single isomer, unassigned; 5b)
CC50 at 144 h [9]: > 100000 nM
EC50 [10]: 275 nM
IC50 [32]: > 10000 nM

CC(C)OC(=O)[C@H](C)N[P@](=O)(CO[C@H](C)Cn1cnc2c(N)ncnc21)Oc1ccccc1 [TENOFOVIR ALAFENAMIDE]
CC50 at 144 h [9]: > 100000 nM
Tmax [11]: 0.25 h
t1/2 [12]: 4.59 h
Drug metabolism [14]: Metabolite_Detected
Vd [16]: 16.1 L/kg
Tmax [17]: 0.25 h
t1/2 [18]: 6.2 h
F [19]: 27.7%
Tmax [20]: 0.25 h
t1/2 [21]: 5.46 h
Tmax [22]: 0.375 h
t1/2 [23]: 4.44 h
Cmax [24]: 1370 ng/mL
Cmax [25]: 16471 ng/mL
EC50 [10]: 17.8 nM
MRT(t) [27]: 1.67 h
Cmax [28]: 4027 ng/mL
CL [30]: 42.8 mL/min/kg
t1/2 [31]: 5.2 h
IC50 [32]: > 10000 nM
Cmax [36]: 29820 ng/mL
